Test results published in patent publication US20220381790A1, “SELECTION AND BLOCKADE OF FERTILIZATION COMPETENT MALE AND FEMALE GAMETES” (University of Virginia Patent Foundation, priority 2019, published 2022).
pKd: −log10 of the molar value. “Also recorded” adds a separate entry of the source.

Experiments:
sperm = assay: Sperm progressive motility; assay type: cell-based, mouse; details: for progressive motility of the sperm: 10 μg/ml Annexin V, 50 μg/ml GST or 50 μg/ml GST-BAI1-TSR
Description: To evaluate the role of PtdSer exposed on sperm, cumulus oocyte complexes (n=30-60) were inseminated with 2-4×10^4 sperm capacitated for 60-90 min in TYH+BSA (in most of the experiments) or in TYH+MBCD^67 (in the experiment to test the effect of Annexin V in fertilization, FIG. 1K). During the last 30 min of capacitation, sperm were incubated with 10 μg/ml Annexin V (Ebiosciences), 50 μg/ml GST or 50 μg/ml GST-BAI1-TSR. After co-culture of oocytes and sperm in 100 μl drops of high calcium human tubal fluid (HTF) supplemented with 1 mM reduced glutathione (GSH) medium for 4 hours^67, eggs were washed several times and transferred to KSOM medium (EMD Millipore). The percentage of 2-cell embryos (fertilized eggs) was determined at 24 hours post insemination. Sperm motility upon incubation with control medium, Annexin V, GST or GST-BAI1-TSR was graded as progressive motility, non-progressive motility, and immotility, according to the criteria of the 5th Edition of the World Health Organization (WHO) Laboratory Manual for the Examination and Processing of Human Semen. The non-progressive motility and immotility numbers were grouped together. To test the soluble head group of PtdSer, O-Phospho-L-Serine (Sigma) and its control O-Phospho-D-Serine (Sigma) in IVF assays, ˜20 ZP-free oocytes isolated from wt mice were incubated 1×10^3 capacitated sperm in 20-μl droplets for 1 h in the presence of 1 mM O-Phospho-L-Serine or O-Phospho-D-Serine. After washes and an overnight incubation the percentage of 2-cell embryos was evaluated.

RAC1 in ZP-free oocytes = assay: Sperm DNA decondensation assay with RAC1 inhibitor; assay type: cell-based, mouse; details: 80 μM, oocytes preincubated 1-2 h, inhibitor present during 1 h insemination
Description: To evaluate the role of RAC1, ZP-free oocytes were prepared as described above, loaded with 10 μg/ml DAPI (BioRad) for 20 min at 37° C., 5% CO2, and washed several times in TYH+BSA 3. Twenty oocytes, either untreated or previously incubated with RAC1 inhibitor (80 μM, EHT-1864, Sigma) for 1-2 h were inseminated with 1000 capacitated sperm for 1 h in 20 μl drops of TYH+BSA medium at 37° C., 5% CO2. RAC1 inhibitor was also present the fertilization steps. After 3 washes, oocytes were fixed in 0.25% glutaraldehyde and 0.1% paraformaldehyde for 20 min at room temperature, washed and mounted. The percentage of oocytes with DAPI^+ decondensed sperm nuclei (typically 1-2/oocyte) was evaluated by microscopy.

C2C12 myoblasts = assay: Sperm:myoblast fusion assay; assay type: cell-based, mouse; details: 4 h co-culture; for sperm:myoblast fusion (Calcein-AM+ myoblasts): Calcein-AM labeled sperm, 50 μg/ml GST-BAI1-TSR on sperm, 80 μM EHT-1864, 5 μg/ml Cytochalasin D, 4% PFA; for DiI+ myoblasts (transfer of the dye DiI from the sperm to the myoblasts): DiI-labeled sperm
Description: To stain sperm with the dyes Calcein-AM or DiI, caudal sperm were allowed to swim in TYH+0.75 mM Methyl-beta-cyclodextrin (MBCD)^67 for 15 min, counted and stained with 4 μM Calcein red orange-AM (Invitrogen) for 30 min in PBS at room temperature or with 5 μg/ml DiI (Invitrogen) for 30 min at 37° C. in HBSS, as previously described^60. Cells were washed, counted and resuspended in DMEM medium supplemented with 20% heat inactivated FBS.
Sperm:myoblast fusion experiments. C2C12 murine skeletal muscle myoblasts (ATCC) were maintained at sub-confluent densities in DMEM medium supplemented with 20% heat inactivated FBS at 37° C., 8.5% CO2. Cells were trypsinized, counted and plated in 4-well LabTek II Permanox chamber slides (25,000 cells/well). After 24 h, myoblasts were treated with appropriate buffer alone, or 5 μg/ml Cytochalasin D (Sigma), 80 μM RAC1 inhibitor (EHT-1864), or incubated with Abs (BAI3 [R&D Systems, MAB39651] or CD9 [BD Biosciences]) for 30 min at 37° C., 8.5% CO2 prior to the sperm co-incubation. Alternatively, myoblasts were fixed with 4% PFA for 20 min and washed several times. Calcein-AM+ sperm (250,000 sperm/well) were added and incubated for 4 h at 37° C., 8.5% CO2. The blocking agents were also present during the co-incubation except for Cytochalasin D, which was used only during the preincubation to avoid affecting the sperm. Sperm were pretreated with 50 μg/ml GST or 50 μg/ml GST-BAI1-TSR for 30 min and then added to the myoblasts. C2C12 myoblasts with shRNA-mediated Elmo2 knockdown have been described previously^25. After the 4 h co-incubation, myoblasts were washed, stained with Hoechst and mounted. Cells were analyzed the same day and 6-8 fields/well were photographed using the Axio Imager 2 with Apotome (Zeiss). Image J cell counter plugin software was used to quantitate nuclei number. The fusion index was calculated as the percentage of Calcein AM^+ myoblasts in the experimental group normalized to the control untreated cells.

ZP-free oocytes = assay: In vitro fertilization assay, competition with soluble head group of PtdSer; assay type: cell-based, mouse; details: 1 mM, ZP-free oocytes with capacitated sperm for 1 h, 2-cell embryos after overnight incubation
Description: In vitro fertilization (IVF) assays. IVF was performed as previously described^68. Briefly, 4-5 week old female mice were super-ovulated by intraperitoneal injections of 5 IU of pregnant mare serum gonadotropin (PMSG, Prospec) and 5 IU of human chorionic gonadotropin (hCG, Sigma) 48 hours (h) later. Metaphase II oocytes were recovered 13 h after hCG, and were: 1) directly used as cumulus oocyte complexes (COC), 2) freed from cumulus cells by a brief incubation with 3 mg/ml hyaluronidase (Sigma) in 0.01% poly vinyl alcohol (PVA)/FHM medium (EMD Millipore). These oocytes were labeled as Zona pellucida (ZP)-intact oocytes; or 3) freed from cumulus cells and ZP using Tyrode's solution (Sigma) (ZP-free oocytes). Sperm were collected from the cauda epididymides of adult (>10 week-old) wild-type male mice and capacitated for 90 min in TYH+BSA medium (described above, Sperm staining section). All the incubations were performed in medium drops under paraffin oil (Sigma) at 37° C., 5% CO2 atmosphere. To evaluate the role of PtdSer exposed on sperm, cumulus oocyte complexes (n=30-60) were inseminated with 2-4×10^4 sperm capacitated for 60-90 min in TYH+BSA (in most of the experiments) or in TYH+MBCD^67 (in the experiment to test the effect of Annexin V in fertilization, FIG. 1K). During the last 30 min of capacitation, sperm were incubated with 10 μg/ml Annexin V (Ebiosciences), 50 μg/ml GST or 50 μg/ml GST-BAI1-TSR. After co-culture of oocytes and sperm in 100 μl drops of high calcium human tubal fluid (HTF) supplemented with 1 mM reduced glutathione (GSH) medium for 4 hours^67, eggs were washed several times and transferred to KSOM medium (EMD Millipore). The percentage of 2-cell embryos (fertilized eggs) was determined at 24 hours post insemination. […] After washes and an overnight incubation the percentage of 2-cell embryos was evaluated.

PtdSer exposed on sperm = assay: In vitro fertilization assay, masking PtdSer on sperm; assay type: cell-based, mouse; details: 2-cell embryos at 24 h
Description: In vitro fertilization (IVF) assays. IVF was performed as previously described^68. Briefly, 4-5 week old female mice were super-ovulated by intraperitoneal injections of 5 IU of pregnant mare serum gonadotropin (PMSG, Prospec) and 5 IU of human chorionic gonadotropin (hCG, Sigma) 48 hours (h) later. Metaphase II oocytes were recovered 13 h after hCG, and were: 1) directly used as cumulus oocyte complexes (COC), 2) freed from cumulus cells by a brief incubation with 3 mg/ml hyaluronidase (Sigma) in 0.01% poly vinyl alcohol (PVA)/FHM medium (EMD Millipore). These oocytes were labeled as Zona pellucida (ZP)-intact oocytes; or 3) freed from cumulus cells and ZP using Tyrode's solution (Sigma) (ZP-free oocytes). Sperm were collected from the cauda epididymides of adult (>10 week-old) wild-type male mice and capacitated for 90 min in TYH+BSA medium (described above, Sperm staining section). […]
To evaluate the role of PtdSer exposed on sperm, cumulus oocyte complexes (n=30-60) were inseminated with 2-4×10^4 sperm capacitated for 60-90 min in TYH+BSA (in most of the experiments) or in TYH+MBCD^67 (in the experiment to test the effect of Annexin V in fertilization, FIG. 1K). […] The percentage of 2-cell embryos (fertilized eggs) was determined at 24 hours post insemination. […] After washes and an overnight incubation the percentage of 2-cell embryos was evaluated.

[1] = annexin V for PS; cited from earlier work
[2] = tested on: ZP-free wild-type oocytes; assay: Binding of 2 μm carboxylate modified beads to oocytes; assay type: cell-based, mouse; details: beads pretreated with 50 μg/ml GST-BAI1-TSR for 30 min; oocytes with >5 bound beads scored
Description: The presence of functional PtdSer receptors on mouse ZP-free wild-type oocytes was evaluated by incubation with 2 μm carboxylate modified red (580/605) beads (1:400, Invitrogen, FluoSpheres) for 2 h in TYH+BSA at 37° C., 5% CO2. Beads were pre-treated with medium only, 50 μg/ml GST or 50 μg/ml GST-BAI1-TSR for 30 min. Oocytes were washed 6 times in TYH+BSA, stained with CD9 antibody for 30 min at 37° C., 5% CO2 in TYH+BSA, fixed in 4% PFA+1% BSA and stained with Hoechst. The percentage of oocytes with bound beads was determined by microscopy. We scored oocytes with >5 bound beads, since accurately counting individual beads, particularly in oocytes of the control groups that bound multiple beads was unfeasible.

O=c1cc(CN2CCOCC2)occ1OCCCCCSc1ccnc2cc(C(F)(F)F)ccc12 [EHT-1864, reference compound]
sperm motility (sperm; sperm incubated with EHT-1864 alone under the assay conditions): no reduction in the motility
number of oocytes with decondensed sperm DNA (RAC1 in ZP-free oocytes): significant reduction
sperm:myoblast fusion (Calcein-AM+ myoblasts) (C2C12 myoblasts): potently blocked
DiI+ myoblasts (transfer of the dye DiI from the sperm to the myoblasts) (C2C12 myoblasts): blocked

N[C@H](COP(=O)(O)O)C(=O)O [Phospho-D-Serine, O-Phospho-D-Serine]
effect on fertilization (2-cell embryos) (ZP-free oocytes): did not inhibit fertilization

N[C@@H](COP(=O)(O)O)C(=O)O [Phospho-L-Serine, O-Phospho-L-Serine]
effect on fertilization (2-cell embryos) (ZP-free oocytes): significant reduction in fertilization
inhibition at 1000 µM (ZP-free oocytes; Mus musculus, Oocyte, read-out: partial inhibition of fertilization): 30 to 40%

C=C1[C@@H](C)[C@H]2[C@H](Cc3ccccc3)NC(=O)[C@]23[C@H](OC(C)=O)/C=C/[C@@](C)(O)C(=O)[C@@H](C)C/C=C/[C@H]3[C@@H]1O [cytochalasin D, reference compound]
sperm:myoblast fusion (Calcein-AM+ myoblasts) (C2C12 myoblasts): abrogated

Annexin V: PtdSer-binding protein reagent (Ebiosciences) used to mask PtdSer on sperm; highest affinity of the three blocking agents
reduction in fertilization (PtdSer exposed on sperm; 10 μg/ml Annexin V on capacitated caudal sperm, in three out of four independent experiments): > 85%
progressive motility of the sperm (sperm): not affected; also recorded: No significant differences
pKd [1]: 8.18

BAI1-TSR: soluble extracellular fragment of the PtdSer recognition receptor BAI1 (residues 202-585) fused to glutathione-S-transferase; SEQ ID NOs: 1 and 2
effect on fertilization (2-cell embryos) (PtdSer exposed on sperm; sperm incubated with 50 μg/ml GST-BAI1-TSR): significantly reduced fertilization
progressive motility of the sperm (sperm): not affected
progressive motility of the sperm (sperm; listed as GST-BAI1-TSR): No significant differences
binding of carboxylate modified beads to oocytes [2]: significantly decreased
sperm:myoblast fusion (Calcein-AM+ myoblasts) (C2C12 myoblasts): significantly decreased the fusion

GST: glutathione-S-transferase control protein, SEQ ID NO: 1 [reference compound]
progressive motility of the sperm (sperm): No significant differences

paraformaldehyde
sperm:myoblast fusion (Calcein-AM+ myoblasts) (C2C12 myoblasts): abrogated
DiI+ myoblasts (transfer of the dye DiI from the sperm to the myoblasts) (C2C12 myoblasts): blocked
